Laboratory results from PubChem BioAssay AID1745844 (Carcinogenic Potency Database (CPDB), 2022).
The source made the active and inactive calls. The rule behind the calls is not given here.

Test system: rodent lifetime carcinogenesis bioassay, tumor incidence TD50
Assay: chronic cancer bioassays in animals – CPDB, compiled studies (AID 1745844)

Compound: C/C=C/C=C/C(=O)O
- TD50 (mouse, strain ASH-CS1, females, in feed, site: liver, lesion: hyperplastic nodule, dosed 80 weeks, study length 80 weeks): 362000 mg/kg/day (inactive)
- carcinogen call (mouse, strain ASH-CS1, females, in feed, site: lung, lesion: adenoma, dosed 80 weeks, study length 80 weeks): negative (inactive)
- carcinogen call (mouse, strain ASH-CS1, males, in feed, site: liver, lesion: hyperplastic nodule, dosed 80 weeks, study length 80 weeks): negative (inactive)
- carcinogen call (mouse, strain ASH-CS1, males, in feed, site: lung, lesion: adenoma, dosed 80 weeks, study length 80 weeks): negative (inactive)
- carcinogen call (rat, strain Wistar, females, in feed, site: any site (literature study), lesion: malignant tumor, dosed 104 weeks, study length 104 weeks): negative (inactive)
- carcinogen call (rat, strain Wistar, females, in feed, site: any site (literature study), lesion: several types, types named in the paper, dosed 104 weeks, study length 104 weeks): negative (inactive)
- TD50 (rat, strain Wistar, females, in feed, site: liver, lesion: hemangioma, dosed 104 weeks, study length 104 weeks): 34000 mg/kg/day (inactive)
- TD50 (rat, strain Wistar, males, in feed, site: any site (literature study), lesion: malignant tumor, dosed 104 weeks, study length 104 weeks): 51400 mg/kg/day (inactive)
- TD50 (rat, strain Wistar, males, in feed, site: any site (literature study), lesion: several types, types named in the paper, dosed 104 weeks, study length 104 weeks): 33900 mg/kg/day (inactive)
- carcinogen call (rat, strain Wistar, males, in feed, site: liver, lesion: hemangioma, dosed 104 weeks, study length 104 weeks): negative (inactive)

Compound: O=NN1CCCCCC1
- TD50 (mouse, strain BALB/c, females, by gavage, site: esophagus, lesion: squamous-cell papilloma, dosed 30 weeks, study length 49 weeks): 19.7 mg/kg/day
- TD50 (mouse, strain BALB/c, females, by gavage, site: liver, lesion: several types, types named in the paper, dosed 30 weeks, study length 49 weeks): 0.797 mg/kg/day
- TD50 (mouse, strain BALB/c, females, by gavage, site: lung, lesion: several types, types named in the paper, dosed 30 weeks, study length 49 weeks): 7.44 mg/kg/day
- TD50 (mouse, strain BALB/c, females, by gavage, site: nasal mucosa, lesion: several types, types named in the paper, dosed 30 weeks, study length 49 weeks): 4.5 mg/kg/day
- TD50 (mouse, strain Charles River CD1, females, by gavage, site: esophagus, lesion: squamous-cell papilloma, dosed 30 weeks, study length 62 weeks): 12.7 mg/kg/day
- TD50 (mouse, strain Charles River CD1, females, by gavage, site: forestomach, lesion: several types, types named in the paper, dosed 30 weeks, study length 62 weeks): 5.65 mg/kg/day
- TD50 (mouse, strain Charles River CD1, females, by gavage, site: liver, lesion: several types, types named in the paper, dosed 30 weeks, study length 62 weeks): 0.746 mg/kg/day
- TD50 (mouse, strain Charles River CD1, females, by gavage, site: lung, lesion: several types, types named in the paper, dosed 30 weeks, study length 62 weeks): 2.71 mg/kg/day
- TD50 (mouse, strain Charles River CD1, females, by gavage, site: nasal mucosa, lesion: one or several types, types not named, dosed 30 weeks, study length 62 weeks): 26 mg/kg/day
- TD50 (mouse, strain NZO/BlGd, females, in drinking water, site: esophagus, lesion: several types, types named in the paper, dosed 32 weeks, study length 74 weeks): 0.725 mg/kg/day
- TD50 (mouse, strain NZO/BlGd, females, in drinking water, site: liver, lesion: hepatocellular carcinoma, dosed 32 weeks, study length 74 weeks): 3.21 mg/kg/day
- TD50 (mouse, strain NZO/BlGd, females, in drinking water, site: oropharynx, lesion: several types, types named in the paper, dosed 32 weeks, study length 74 weeks): 6.37 mg/kg/day
- TD50 (mouse, strain NZO/BlGd, females, in drinking water, site: stomach, glandular, lesion: several types, types named in the paper, dosed 32 weeks, study length 74 weeks): 4.05 mg/kg/day
- TD50 (mouse, strain NZO/BlGd, females, in drinking water, site: stomach, squamous, lesion: several types, types named in the paper, dosed 32 weeks, study length 74 weeks): 0.415 mg/kg/day
- TD50 (mouse, strain NZO/BlGd, males, in drinking water, site: esophagus, lesion: several types, types named in the paper, dosed 32 weeks, study length 60 weeks): 0.313 mg/kg/day
- TD50 (mouse, strain NZO/BlGd, males, in drinking water, site: liver, lesion: hepatocellular carcinoma, dosed 32 weeks, study length 60 weeks): 8.03 mg/kg/day
- TD50 (mouse, strain NZO/BlGd, males, in drinking water, site: lung, lesion: several types, types named in the paper, dosed 32 weeks, study length 60 weeks): 1.93 mg/kg/day
- TD50 (mouse, strain NZO/BlGd, males, in drinking water, site: oropharynx, lesion: several types, types named in the paper, dosed 32 weeks, study length 60 weeks): 1.41 mg/kg/day
- TD50 (mouse, strain NZO/BlGd, males, in drinking water, site: stomach, glandular, lesion: several types, types named in the paper, dosed 32 weeks, study length 60 weeks): 3.23 mg/kg/day
- TD50 (mouse, strain NZO/BlGd, males, in drinking water, site: stomach, squamous, lesion: several types, types named in the paper, dosed 32 weeks, study length 60 weeks): 0.448 mg/kg/day
- TD50 (mouse, strain SENCAR, females, by gavage, site: esophagus, lesion: squamous-cell papilloma, dosed 30 weeks, study length 67 weeks): 6.47 mg/kg/day
- TD50 (mouse, strain SENCAR, females, by gavage, site: forestomach, lesion: several types, types named in the paper, dosed 30 weeks, study length 67 weeks): 2.25 mg/kg/day
- TD50 (mouse, strain SENCAR, females, by gavage, site: liver, lesion: several types, types named in the paper, dosed 30 weeks, study length 67 weeks): 1.92 mg/kg/day
- TD50 (mouse, strain SENCAR, females, by gavage, site: lung, lesion: several types, types named in the paper, dosed 30 weeks, study length 67 weeks): 0.783 mg/kg/day
- TD50 (mouse, strain SENCAR, females, by gavage, site: nasal mucosa, lesion: several types, types named in the paper, dosed 30 weeks, study length 67 weeks): 6.47 mg/kg/day
